Reference: ChEMBL document CHEMBL5576037, “Discovery of the first ataxia telangiectasia and Rad3-related (ATR) degraders for cancer treatment” (Eur J Med Chem, 2024)
The source made the active and inactive calls. No cut-off for these calls is given here.

Columns and labels:
[1] = target: T1, Serine/threonine-protein kinase ATR (Homo sapiens, UniProt Q13535); experiment: Inhibition of ATR (unknown origin)
NCM460 = experiment: Cytotoxicity against human NCM460 cells; assay type: toxicity, cell-based
[2] = target: T2, Protein cereblon/Serine/threonine-protein kinase ATR (Homo sapiens, UniProt Q13535+Q96SW2); experiment: PROTAC activity at CRBN/ATR in human LoVo cells assessed as induction of ATR degradation measured after 72 hrs by Western blot analysis; assay type: cell-based
[3] = target: T2, Protein cereblon/Serine/threonine-protein kinase ATR; experiment: PROTAC activity at CRBN/ATR in human LoVo cells assessed as induction of ATR degradation at 2.5 uM by Western blot analysis; assay type: cell-based; settings: time 6-72 hrs, TDE = time-dependent effect
[4] = target: Phosphatidylinositol 4,5-bisphosphate 3-kinase catalytic subunit alpha isoform (Homo sapiens) (UniProt P42336); experiment: Induction of PI3K-alpha degradation in human LoVo cells at 0.16 to 10 uM incubated for 72 hrs by Western blot analysis; assay type: cell-based; settings: dose 0.16-10 µM
LoVo [5] = experiment: Induction of SIPA1L1 degradation in human LoVo cells at 1 uM incubated for 24 hrs by global proteomic profiling analysis; assay type: cell-based
LoVo [6] = experiment: Induction of LBP degradation in human LoVo cells at 1 uM incubated for 24 hrs by global proteomic profiling analysis; assay type: cell-based
[7] = target: T2, Protein cereblon/Serine/threonine-protein kinase ATR; experiment: PROTAC activity at CRBN/ATR in human LoVo cells assessed as induction of ATR degradation at 2.5 uM preincubated with MG132 for 4 hrs followed by compound addition and measured after 48 hrs by Western blot analysis; assay type: cell-based
[8] = target: T2, Protein cereblon/Serine/threonine-protein kinase ATR; experiment: PROTAC activity at CRBN/ATR in human LoVo cells assessed as induction of ATR degradation at 2.5 uM preincubated with MLN4924 for 4 hrs followed by compound addition and measured after 48 hrs by Western blot analysis; assay type: cell-based
[9] = target: T2, Protein cereblon/Serine/threonine-protein kinase ATR; experiment: PROTAC activity at CRBN/ATR in human LoVo cells assessed as increase in ATR-CRBN protein-protein interaction by co-immunoprecipitation analysis; assay type: cell-based
[10] = target: T2, Protein cereblon/Serine/threonine-protein kinase ATR; experiment: PROTAC activity at CRBN/ATR in human LoVo cells assessed as induction of ATR degradation at 2.5 uM preincubated for 36 hrs followed by compound washout and measured after 12 to 48 hrs by Western blot analysis; assay type: cell-based
[11] = target: T1, Serine/threonine-protein kinase ATR; experiment: Inhibition of ATR phosphorylation at Thr1989 residue in human LoVo cells incubated for 72 hrs by Western blot analysis; assay type: cell-based; settings: dose 0.16-10 µM
[12] = target: T3, Serine/threonine-protein kinase Chk1 (Homo sapiens) (UniProt O14757); experiment: Inhibition of CHK1 phosphorylation at Ser345 residue in human LoVo cells incubated for 72 hrs by Western blot analysis; assay type: cell-based; settings: dose 0.16-10 µM
T3 sequence (whole entry): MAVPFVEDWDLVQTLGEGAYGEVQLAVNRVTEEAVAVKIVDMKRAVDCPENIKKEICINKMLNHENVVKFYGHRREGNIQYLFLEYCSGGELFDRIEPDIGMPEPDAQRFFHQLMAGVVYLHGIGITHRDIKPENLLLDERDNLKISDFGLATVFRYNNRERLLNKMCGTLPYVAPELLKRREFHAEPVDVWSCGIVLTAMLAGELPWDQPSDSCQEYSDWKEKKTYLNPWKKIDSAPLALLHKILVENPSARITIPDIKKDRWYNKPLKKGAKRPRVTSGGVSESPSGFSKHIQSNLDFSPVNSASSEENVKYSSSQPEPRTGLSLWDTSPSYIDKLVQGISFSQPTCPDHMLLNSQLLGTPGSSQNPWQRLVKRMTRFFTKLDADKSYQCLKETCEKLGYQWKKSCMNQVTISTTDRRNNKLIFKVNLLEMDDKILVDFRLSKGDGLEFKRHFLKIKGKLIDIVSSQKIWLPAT

[13] = target: T3, Serine/threonine-protein kinase Chk1 (Homo sapiens); experiment: Induction of CHK1 degradation in human LoVo cells at 0.16 to 10 uM incubated for 72 hrs by Western blot analysis; assay type: cell-based; settings: dose 0.16-10 µM
LoVo [14] = experiment: Induction of DNA damage in human LoVo cells assessed as increase in gammaH2AX expression at 0.5 to 1 uM incubated for 72 hrs by DAPI staining based immunofluorescence analysis; assay type: functional, cell-based; settings: dose 0.5-1 µM
LoVo [15] = experiment: Cell cycle arrest in human LoVo cells assessed as accumulation of cells at G0/G1 phase at 1 uM incubated for 72 hrs by PI staining based flow cytometric analysis (reference value: 52.3 %); assay type: functional
LoVo [16] = experiment: Cell cycle arrest in human LoVo cells assessed as accumulation of cells at S phase at 1 uM incubated for 72 hrs by PI staining based flow cytometric analysis (reference value: 25.5 %); assay type: functional
LoVo [17] = experiment: Cell cycle arrest in human LoVo cells assessed as accumulation of cells at G0/G1 phase at 0.5 uM incubated for 72 hrs by PI staining based flow cytometric analysis (reference value: 52.3 %); assay type: functional
LoVo [18] = experiment: Cell cycle arrest in human LoVo cells assessed as accumulation of cells at S phase at 0.5 uM incubated for 72 hrs by PI staining based flow cytometric analysis (reference value: 25.5 %); assay type: functional
[19] = Tmax in BALB/c nude mouse xenografted with human LoVo cells at 25 mg/kg, ip administered as single dose and measured after 12 hrs by LC-MS/MS analysis; assay type: ADME, organism-based; settings: in vivo
[20] = AUC (0 to t) in BALB/c nude mouse xenografted with human LoVo cells at 25 mg/kg, ip administered as single dose and measured after 12 hrs by LC-MS/MS analysis; assay type: ADME, organism-based; settings: in vivo
[21] = MRT (0 to t) in BALB/c nude mouse xenografted with human LoVo cells at 25 mg/kg, ip administered as single dose and measured after 12 hrs by LC-MS/MS analysis; assay type: ADME, organism-based; settings: in vivo
LoVo [22] = experiment: Antitumor activity against human LoVo cells xenografted in BALB/c nude mouse assessed as tumor growth inhibition at 12.5 mg/kg, ip administered […] for 15 days relative to control; assay type: functional; settings: 360 h, time 15 day, read-out: TGI
[23] = Toxicity in BALB/c nude mouse xenografted with human LoVo cells assessed as body weight loss at 12.5 to 25 mg/kg, ip administered twice daily for 15 days; assay type: organism-based; settings: in vivo, 360 h, dose 12.5-25 mg/kg, time 15 day
[24] = Toxicity in BALB/c nude mouse xenografted with human LoVo cells assessed as effect on kidney at 12.5 to 25 mg/kg, ip administered twice daily for 15 days by H and E staining based analysis; assay type: organism-based; settings: in vivo, 360 h, dose 12.5-25 mg/kg, time 15 day
[25] = target: T2, Protein cereblon/Serine/threonine-protein kinase ATR; experiment: In vivo PROTAC activity at CRBN/ATR in BALB/c nude mouse xenografted with human LoVo cells assessed as reduction in ATR protein level administered intraperitoneally once daily for 15 days by Western blot analysis; assay type: functional, organism-based; settings: dose 12.5-25 mg/kg, route ip, time 15.0 day
[26] = target: T2, Protein cereblon/Serine/threonine-protein kinase ATR; experiment: In vivo PROTAC activity at CRBN/ATR in BALB/c nude mouse xenografted with human LoVo cells assessed as reduction in ATR phosphorylation at Thr1989 residue administered intraperitoneally once daily for 15 days by Western blot analysis; assay type: functional, organism-based; settings: dose 12.5-25 mg/kg, route ip, time 15.0 day
[27] = target: T2, Protein cereblon/Serine/threonine-protein kinase ATR; experiment: In vivo PROTAC activity at CRBN/ATR in BALB/c nude mouse xenografted with human LoVo cells assessed as reduction in CHK1 phosphorylation at Ser345 residue administered intraperitoneally once daily for 15 days by Western blot analysis; assay type: functional, organism-based; settings: dose 12.5-25 mg/kg, route ip, time 15.0 day

In the case of `C[C@@H]1COCCN1c1cc(C2([S@@](C)(=O)=NC(=O)CCc3cn(CCCCCCCC(=O)Nc4cccc5c4C(=O)N(C4CCC(=O)NC4=O)C5=O)nn3)CC2)nc(-c2ccnc3[nH]ccc23)n1` (some centres undefined), the inhibition [1] is reported as “Active”, the Activity (NCM460) is reported as “Non-Toxic” and the Activity [2] is reported as “Dose-Dependent Effect”. For the same compound, the DC50 [2] was 530 nM, the Activity [3] was “Tde” and the Activity [4] was “inactive”. The Activity (LoVo [5]) was “Active”, the Activity (LoVo [6]) was “Active” and the Activity [7] was “inactive”. For the same compound, the Activity [8] was “inactive”, the Activity [9] was “Active” and the Activity [10] was “Active”. For the same compound, the inhibition [11] was “Dose-Dependent Effect”, the inhibition [12] was “Dose-Dependent Effect” and the Activity [13] was “inactive”. The Activity (LoVo [14]) was “Active”, the Activity (LoVo [15]) was 67.3% and the Activity (LoVo [16]) was 19.3%. For the same compound, the Activity (LoVo [17]) was 57.9%, the Activity (LoVo [18]) was 22.4% and the Tmax [19] was 2 h. The AUC(0-t) at 12 h [20] was 4550 ng·h/mL, the MRT last at 12 h [21] was 4.21 h and the inhibition in vivo at 12.5 mg/kg (LoVo [22]) was 39.5%. For the same compound, the Activity [23] was “Non-Toxic”, the Activity [24] was “Non-Toxic” and the Activity [25] was “Dose-Dependent Effect”. For the same compound, the Activity [26] was “Dose-Dependent Effect” and the Activity [27] was “Dose-Dependent Effect”.
